From patent publication US12581252B2, “Substituted pyrrolo[3,4-b]pyridines as PI3K-α inhibitors” (Relay Therapeutics, Inc., priority 2020, dated 2026)

biological target: H1047R PIK3CA enzyme (Homo sapiens, UniProt P42336, H1047R); assay: ADP-Glo Biochemical PIK3CA Kinase Assay
Procedure: Compounds to be assayed were plated in 16 doses of 1:2 serial dilutions (20 nL volume each well) on a 1536-well plate, and the plate warmed to room temperature. […] To the well was added 1 μL of 200 μM ATP and 20 μM of diC8-PIP2 in Substrate Assay Buffer (50 mM HEPES pH7.4, 50 mM NaCl, 5 mM DTT and 0.03% CHAPS) to start the reaction, and the plate was shaken for 10 seconds, then spun briefly at 1500 rpm, and then incubated for 60 minutes at room temperature. The reaction was stopped by adding 2 μL of ADP-Glo reagent (Promega), and spinning briefly at 1500 rpm, and then incubating for 40 minutes. ADP-Glo Detection reagent (Promega) was added and the plate spun briefly at 1500 rpm, then incubated for 30 minutes.

Sequence of H1047R PIK3CA enzyme (P42336 whole entry H1047R): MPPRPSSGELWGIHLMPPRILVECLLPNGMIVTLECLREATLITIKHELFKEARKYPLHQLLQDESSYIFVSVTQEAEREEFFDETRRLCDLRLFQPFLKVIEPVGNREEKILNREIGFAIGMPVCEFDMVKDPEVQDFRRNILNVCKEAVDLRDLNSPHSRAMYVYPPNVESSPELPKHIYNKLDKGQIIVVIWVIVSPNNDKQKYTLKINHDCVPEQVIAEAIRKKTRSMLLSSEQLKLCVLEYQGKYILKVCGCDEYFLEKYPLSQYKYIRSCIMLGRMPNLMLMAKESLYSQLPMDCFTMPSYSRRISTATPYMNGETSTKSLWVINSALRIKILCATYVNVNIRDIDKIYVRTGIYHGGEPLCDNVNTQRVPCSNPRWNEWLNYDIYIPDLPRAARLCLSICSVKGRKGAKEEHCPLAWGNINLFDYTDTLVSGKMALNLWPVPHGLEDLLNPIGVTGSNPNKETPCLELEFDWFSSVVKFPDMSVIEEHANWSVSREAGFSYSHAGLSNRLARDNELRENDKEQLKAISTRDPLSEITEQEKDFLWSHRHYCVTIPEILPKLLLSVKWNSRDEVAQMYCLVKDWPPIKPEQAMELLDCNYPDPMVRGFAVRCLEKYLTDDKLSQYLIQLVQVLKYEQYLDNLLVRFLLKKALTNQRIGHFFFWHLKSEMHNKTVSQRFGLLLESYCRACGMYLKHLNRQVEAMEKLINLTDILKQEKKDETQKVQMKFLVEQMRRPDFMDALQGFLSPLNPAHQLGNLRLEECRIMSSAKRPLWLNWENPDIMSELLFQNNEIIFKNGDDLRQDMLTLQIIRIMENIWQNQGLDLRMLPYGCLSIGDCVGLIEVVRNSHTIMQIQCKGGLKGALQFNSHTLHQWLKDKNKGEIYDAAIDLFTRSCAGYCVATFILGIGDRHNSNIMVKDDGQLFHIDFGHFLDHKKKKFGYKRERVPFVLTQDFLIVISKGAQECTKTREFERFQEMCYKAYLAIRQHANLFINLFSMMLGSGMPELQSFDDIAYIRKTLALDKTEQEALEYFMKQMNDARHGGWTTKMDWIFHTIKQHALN
Sequence of H1047R PIK3CA enzyme (P27986 whole entry partner): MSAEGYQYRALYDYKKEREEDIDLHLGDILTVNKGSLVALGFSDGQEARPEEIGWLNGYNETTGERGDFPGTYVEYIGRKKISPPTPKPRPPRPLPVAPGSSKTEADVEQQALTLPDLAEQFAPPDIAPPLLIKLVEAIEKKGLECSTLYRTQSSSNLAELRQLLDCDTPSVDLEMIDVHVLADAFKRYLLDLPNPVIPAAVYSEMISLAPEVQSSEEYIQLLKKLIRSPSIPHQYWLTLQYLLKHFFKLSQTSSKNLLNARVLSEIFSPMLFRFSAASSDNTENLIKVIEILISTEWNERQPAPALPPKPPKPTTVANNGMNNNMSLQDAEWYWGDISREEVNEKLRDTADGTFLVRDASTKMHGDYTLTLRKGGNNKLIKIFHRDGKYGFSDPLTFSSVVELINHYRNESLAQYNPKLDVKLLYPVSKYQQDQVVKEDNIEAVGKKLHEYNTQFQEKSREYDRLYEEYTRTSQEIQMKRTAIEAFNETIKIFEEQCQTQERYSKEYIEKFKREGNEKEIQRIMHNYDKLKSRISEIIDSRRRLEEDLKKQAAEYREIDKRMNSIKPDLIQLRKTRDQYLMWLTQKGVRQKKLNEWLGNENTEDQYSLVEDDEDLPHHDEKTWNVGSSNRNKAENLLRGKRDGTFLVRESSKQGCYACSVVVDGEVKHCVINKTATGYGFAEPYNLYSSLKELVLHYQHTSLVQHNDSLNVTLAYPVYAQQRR

SMILES	IC50 [µM]
CN(C)C(=O)OCc1cc(NC(=O)c2cc(F)cc(C(F)(F)F)c2)c2c(c1)C(=O)NC2c1cc(F)ccc1Cl (centres unmarked) [Compound I-1532]	≤ 0.1
O=C1NC(c2cc(F)ccc2Cl)c2c(NC(=O)N3CCC4C3[C@@H]4C(F)(F)F)cccc21 (single isomer, unassigned) [Compound I-2329]	1 to 10
Cn1cc(-c2cc(NC(=O)c3nsc4ccccc34)c3c(n2)C(=O)N[C@H]3c2ccccc2Cl)cn1 [Compound I-114]	1 to 10
N#C[C@H]1C[C@@H](Oc2cc(NC(=O)c3cc(F)cc(C(F)(F)F)c3)c3c(c2)C(=O)N[C@@H]3c2cc(F)ccc2Cl)C1 [Compound I-1333]	1 to 10
Cc1ccccc1C1NCc2cccc(NC(=O)c3nsc4ccccc34)c21 (centres unmarked) [Compound I-201]	1 to 10
O=C(Nc1cc(C2COC2)cc2c1C(c1cc(F)ccc1Cl)NC2=O)c1cc(F)cc(C(F)(F)F)c1 (centres unmarked) [Compound I-420]	≤ 0.1
O=C1N[C@H](c2cc(F)ccc2Cl)c2c(NC(=O)N3C[C@](O)(C(F)(F)F)c4cc(F)ccc43)cc(-n3ccnn3)cc21 (single isomer, unassigned) [Compound I-2548]	1 to 10
Cc1ccccc1[C@H]1NC(=O)c2nccc(NC(=O)N3C[C@@H](C)c4ccccc43)c21 (single isomer, unassigned) [Compound I-301]	0.5 to 1
O=C1NC(c2cc(F)ccc2Cl)c2c(NC(=O)c3nsc4ccccc34)cc(CO)cc21 (centres unmarked) [Compound I-154]	≤ 0.1
O=C1N[C@@H](c2cc(F)ccc2C(F)F)c2c(NC(=O)c3nsc4ccccc34)cccc21 [Compound I-168]	≤ 0.1
O=C1C[C@@H](c2cc(NC(=O)c3cc(F)cc(C(F)(F)F)c3)c3c(c2)C(=O)N[C@H]3c2cc(F)ccc2Cl)CN1 (single isomer, unassigned) [Compound I-1710]	≤ 0.1
O=C(Nc1cc(N2CCCC(F)(F)C2)nc2c1C(c1cc(F)ccc1Cl)NC2=O)c1cc(F)cc(C(F)(F)F)c1 (centres unmarked) [Compound I-538]	≤ 0.1
COc1ccc(Cl)cc1C(=O)Nc1cc(Br)cc2c1C(c1cc(F)ccc1Cl)NC2=O (centres unmarked) [Compound I-799]	1 to 10
NS(=O)(=O)Cc1cc(NC(=O)c2cc(F)cc(C(F)(F)F)c2)c2c(c1)C(=O)N[C@H]2c1cc(F)ccc1Cl [Compound I-1480]	≤ 0.1
CNC(=O)c1ccc(NC(=O)c2csc3ccccc23)c2c1C(=O)NC2c1ccccc1C (centres unmarked) [Compound I-150]	≤ 0.1
O=C(Nc1cc(-c2cnc(OCCO)nc2)cc2c1C(c1cc(F)ccc1Cl)NC2=O)c1cc(F)cc(C(F)(F)F)c1 (centres unmarked) [Compound I-1474]	≤ 0.1
COc1ccc2c(C(=O)Nc3cccc4c3C(c3ccccc3C)NC4=O)csc2c1 (centres unmarked) [Compound I-79]	10 to 100
Cn1ncc(-c2cc(NC(=O)c3cc(F)cc(C(F)(F)F)c3)c3c(c2)C(=O)NC3c2cc(F)ccc2Cl)c1C#N (centres unmarked) [Compound I-1699]	≤ 0.1
CCC1C(C)CCN1C(=O)Nc1cccc2c1C(c1cc(F)ccc1Cl)NC2=O (mixture of isomers) [Compound I-2394]	1 to 10
CC(C)c1cc(N)n(C(=O)Nc2cccc3c2C(c2cc(F)ccc2Cl)NC3=O)n1 (centres unmarked) [Compound I-2465]	10 to 100
CC(C1CCN(C(=O)Nc2cccc3c2C(c2cc(F)ccc2Cl)NC3=O)C1)C(F)(F)F (mixture of isomers) [Compound I-2421]	10 to 100
O=C(Nc1cc(Br)cc2c1C(c1cc(F)ccc1Cl)NC2=O)c1cc(Cl)cc2c1NCCO2 (centres unmarked) [Compound I-1242]	1 to 10
O=C(Nc1cc(N[C@H]2C[C@H](O)C2)cc2c1C(c1cc(F)ccc1Cl)NC2=O)c1cc(F)cc(C(F)(F)F)c1 (single isomer, unassigned) [Compound I-609]	≤ 0.1
Cc1ccccc1[C@H]1NC(=O)c2c(C(N)=O)ccc(NC(=O)c3cc(F)cc(C(F)(F)F)c3)c21 [Compound I-509]	0.1 to 0.5
O=C(Nc1cc(Br)cc2c1C(c1cc(F)ccc1Cl)NC2=O)c1cc(Cl)cc(Cl)c1 (centres unmarked) [Compound I-521]	≤ 0.1
N#CCOc1cc(NC(=O)c2cc(F)cc(C(F)(F)F)c2)c2c(c1)C(=O)N[C@H]2c1cc(F)ccc1Cl [Compound I-1888]	≤ 0.1
